In ChEMBL document CHEMBL3044826, “Design, synthesis and biological evaluation of some novel substituted 2-mercapto-3-phenethylquinazolines as antitumor agents” (2013):

What was measured:
Type in all cases: functional
OVCAR-5 = assay: Cytotoxicity against Homo sapiens (human) OVCAR5 cells assessed as growth inhibition at 10 uM after 48 hr by coulter counter analysis; conditions: OVCAR-5, 48 h, read-out: GI
SW-620 = assay: Cytotoxicity against Homo sapiens (human) SW620 cells assessed as growth inhibition at 10 uM after 48 hr by coulter counter analysis; conditions: SW-620, 48 h, read-out: GI
KM12 = assay: Cytotoxicity against Homo sapiens (human) KM12 cells assessed as growth inhibition at 10 uM after 48 hr by coulter counter analysis; conditions: KM12, 48 h, read-out: GI
SNB-19 = assay: Cytotoxicity against Homo sapiens (human) SNB19 cells assessed as growth inhibition at 10 uM after 48 hr by coulter counter analysis; conditions: SNB-19, 48 h, read-out: GI
EKVX = assay: Cytotoxicity against Homo sapiens (human) EKVX cells assessed as growth inhibition at 10 uM after 48 hr by coulter counter analysis; conditions: read-out: GI
UACC-62 = assay: Cytotoxicity against Homo sapiens (human) UACC62 cells assessed as growth inhibition at 10 uM after 48 hr by coulter counter analysis; conditions: UACC-62, 48 h, read-out: GI
BT-549 = assay: Cytotoxicity against Homo sapiens (human) BT549 cells assessed as growth inhibition at 10 uM after 48 hr by coulter counter analysis; conditions: BT-549, 48 h, read-out: GI
TK-10 = assay: Cytotoxicity against Homo sapiens (human) TK10 cells assessed as growth inhibition at 10 uM after 48 hr by coulter counter analysis; conditions: TK-10, 48 h, read-out: GI
PC-3 = assay: Cytotoxicity against Homo sapiens (human) PC3 cells assessed as growth inhibition at 10 uM after 48 hr by coulter counter analysis; conditions: PC-3, 48 h, read-out: GI
NCI-H322M = assay: Cytotoxicity against Homo sapiens (human) NCI-H322M cells assessed as growth inhibition at 10 uM after 48 hr by coulter counter analysis; conditions: read-out: GI
SNB-75 = assay: Cytotoxicity against Homo sapiens (human) SNB75 cells assessed as growth inhibition at 10 uM after 48 hr by coulter counter analysis; conditions: SNB-75, 48 h, read-out: GI
COLO 205 = assay: Cytotoxicity against Homo sapiens (human) COLO205 cells assessed as growth inhibition at 10 uM after 48 hr by coulter counter analysis; conditions: COLO 205, 48 h, read-out: GI
A549 = assay: Cytotoxicity against Homo sapiens (human) A549 cells assessed as growth inhibition at 10 uM after 48 hr by coulter counter analysis; conditions: A549, 48 h, read-out: GI
MDA-MB-231 = assay: Cytotoxicity against Homo sapiens (human) MDA-MB-231 cells assessed as growth inhibition at 10 uM after 48 hr by coulter counter analysis; conditions: MDA-MB-231, 48 h, read-out: GI
OVCAR-4 = assay: Cytotoxicity against Homo sapiens (human) OVCAR4 cells assessed as growth inhibition at 10 uM after 48 hr by coulter counter analysis; conditions: OVCAR-4, 48 h, read-out: GI
Malme-3M = assay: Cytotoxicity against Homo sapiens (human) MALME-3M cells assessed as growth inhibition at 10 uM after 48 hr by coulter counter analysis; conditions: read-out: GI
SK-MEL-28 = assay: Cytotoxicity against Homo sapiens (human) SK-MEL-28 cells assessed as growth inhibition at 10 uM after 48 hr by coulter counter analysis; conditions: SK-MEL-28, 48 h, read-out: GI
SN12C = assay: Cytotoxicity against Homo sapiens (human) SN12C cells assessed as growth inhibition at 10 uM after 48 hr by coulter counter analysis; conditions: read-out: GI
SK-MEL-5 = assay: Cytotoxicity against Homo sapiens (human) SK-MEL-5 cells assessed as growth inhibition at 10 uM after 48 hr by coulter counter analysis; conditions: SK-MEL-5, 48 h, read-out: GI
HCC 2998 = assay: Cytotoxicity against Homo sapiens (human) HCC2998 cells assessed as growth inhibition at 10 uM after 48 hr by coulter counter analysis; conditions: HCC 2998, 48 h, read-out: GI
UO-31 = assay: Cytotoxicity against Homo sapiens (human) UO31 cells assessed as growth inhibition at 10 uM after 48 hr by coulter counter analysis; conditions: UO-31, 48 h, read-out: GI
MDA-MB-435 = assay: Cytotoxicity against Homo sapiens (human) MDA-MB-435 cells assessed as growth inhibition at 10 uM after 48 hr by coulter counter analysis; conditions: MDA-MB-435, 48 h, read-out: GI
ACHN = assay: Cytotoxicity against Homo sapiens (human) ACHN cells assessed as growth inhibition at 10 uM after 48 hr by coulter counter analysis; conditions: read-out: GI
MCF7 = assay: Cytotoxicity against Homo sapiens (human) MCF7 cells assessed as growth inhibition at 10 uM after 48 hr by coulter counter analysis; conditions: MCF7, 48 h, read-out: GI
HOP-62 = assay: Cytotoxicity against Homo sapiens (human) HOP62 cells assessed as growth inhibition at 10 uM after 48 hr by coulter counter analysis; conditions: HOP-62, 48 h, read-out: GI
U-251 = assay: Cytotoxicity against Homo sapiens (human) U251 cells assessed as growth inhibition at 10 uM after 48 hr by coulter counter analysis; conditions: U-251, 48 h, read-out: GI
A498 = assay: Cytotoxicity against Homo sapiens (human) A498 cells assessed as growth inhibition at 10 uM after 48 hr by coulter counter analysis; conditions: A498, 48 h, read-out: GI
HT-29 = assay: Cytotoxicity against Homo sapiens (human) HT-29 cells assessed as growth inhibition at 10 uM after 48 hr by coulter counter analysis; conditions: HT-29, 48 h, read-out: GI
MDA-MB-468 = assay: Cytotoxicity against Homo sapiens (human) MDA-MB-468 cells assessed as growth inhibition at 10 uM after 48 hr by coulter counter analysis; conditions: MDA-MB-468, 48 h, read-out: GI
RXF 393 = assay: Cytotoxicity against Homo sapiens (human) RXF393 cells assessed as growth inhibition at 10 uM after 48 hr by coulter counter analysis; conditions: RXF 393, 48 h, read-out: GI
HCT-15 = assay: Cytotoxicity against Homo sapiens (human) HCT15 cells assessed as growth inhibition at 10 uM after 48 hr by coulter counter analysis; conditions: HCT-15, 48 h, read-out: GI
[1] = Cytotoxicity against Homo sapiens (human) NCI-ADR-RES cells assessed as growth inhibition at 10 uM after 48 hr by coulter counter analysis; conditions: read-out: GI
SF-268 = assay: Cytotoxicity against Homo sapiens (human) SF268 cells assessed as growth inhibition at 10 uM after 48 hr by coulter counter analysis; conditions: SF-268, 48 h, read-out: GI
OVCAR-8 = assay: Cytotoxicity against Homo sapiens (human) OVCAR8 cells assessed as growth inhibition at 10 uM after 48 hr by coulter counter analysis; conditions: OVCAR-8, 48 h, read-out: GI

O=C1c2ccccc2C(=O)N1CCCSc1nc2ccccc2c(=O)n1CCc1ccccc1
inhibition of growth at 10 µM (OVCAR-5): < 10% | inhibition of growth at 10 µM (SW-620): < 10% | inhibition of growth at 10 µM (KM12): < 10% | inhibition of growth at 10 µM (SNB-19): < 10% | inhibition of growth at 10 µM (EKVX): 16% | inhibition of growth at 10 µM (UACC-62): 26% | inhibition of growth at 10 µM (BT-549): < 10% | inhibition of growth at 10 µM (TK-10): < 10% | inhibition of growth at 10 µM (PC-3): 51% | inhibition of growth at 10 µM (NCI-H322M): < 10% | inhibition of growth at 10 µM (SNB-75): < 10% | inhibition of growth at 10 µM (COLO 205): < 10% | inhibition of growth at 10 µM (A549): 18% | inhibition of growth at 10 µM (MDA-MB-231): 14% | inhibition of growth at 10 µM (OVCAR-4): < 10% | inhibition of growth at 10 µM (Malme-3M): < 10% | inhibition of growth at 10 µM (SK-MEL-28): < 10% | inhibition of growth at 10 µM (SN12C): < 10% | inhibition of growth at 10 µM (SK-MEL-5): 43% | inhibition of growth at 10 µM (HCC 2998): < 10% | inhibition of growth at 10 µM (UO-31): 19% | inhibition of growth at 10 µM (MDA-MB-435): < 10% | inhibition of growth at 10 µM (ACHN): < 10% | inhibition of growth at 10 µM (MCF7): < 10% | inhibition of growth at 10 µM (HOP-62): < 10% | inhibition of growth at 10 µM (U-251): 15% | inhibition of growth at 10 µM (A498): 20% | inhibition of growth at 10 µM (HT-29): 13% | inhibition of growth at 10 µM (MDA-MB-468): < 10% | inhibition of growth at 10 µM (RXF 393): < 10% | inhibition of growth at 10 µM (HCT-15): 31% | inhibition of growth at 10 µM [1]: < 10% | inhibition of growth at 10 µM (SF-268): < 10% | inhibition of growth at 10 µM (OVCAR-8): < 10%

O=c1c2ccccc2nc(SCc2nnc(S)n2Cc2ccccc2)n1CCc1ccccc1
inhibition of growth at 10 µM (OVCAR-5): < 10% | inhibition of growth at 10 µM (SW-620): < 10% | inhibition of growth at 10 µM (KM12): < 10% | inhibition of growth at 10 µM (SNB-19): < 10% | inhibition of growth at 10 µM (EKVX): 17% | inhibition of growth at 10 µM (UACC-62): 17% | inhibition of growth at 10 µM (BT-549): < 10% | inhibition of growth at 10 µM (TK-10): < 10% | inhibition of growth at 10 µM (PC-3): 12% | inhibition of growth at 10 µM (NCI-H322M): < 10% | inhibition of growth at 10 µM (SNB-75): < 10% | inhibition of growth at 10 µM (COLO 205): < 10% | inhibition of growth at 10 µM (A549): 12% | inhibition of growth at 10 µM (MDA-MB-231): 28% | inhibition of growth at 10 µM (OVCAR-4): < 10% | inhibition of growth at 10 µM (Malme-3M): < 10% | inhibition of growth at 10 µM (SK-MEL-28): < 10% | inhibition of growth at 10 µM (SN12C): < 10% | inhibition of growth at 10 µM (SK-MEL-5): < 10% | inhibition of growth at 10 µM (HCC 2998): < 10% | inhibition of growth at 10 µM (UO-31): < 10% | inhibition of growth at 10 µM (MDA-MB-435): < 10% | inhibition of growth at 10 µM (ACHN): < 10% | inhibition of growth at 10 µM (MCF7): 27% | inhibition of growth at 10 µM (HOP-62): < 10% | inhibition of growth at 10 µM (U-251): < 10% | inhibition of growth at 10 µM (A498): < 10% | inhibition of growth at 10 µM (HT-29): < 10% | inhibition of growth at 10 µM (MDA-MB-468): < 10% | inhibition of growth at 10 µM (RXF 393): < 10% | inhibition of growth at 10 µM (HCT-15): < 10% | inhibition of growth at 10 µM [1]: 16% | inhibition of growth at 10 µM (SF-268): < 10% | inhibition of growth at 10 µM (OVCAR-8): < 10%

O=c1c2ccccc2nc(SCc2nnc(S)n2-c2ccccc2)n1CCc1ccccc1
inhibition of growth at 10 µM (OVCAR-5): < 10% | inhibition of growth at 10 µM (SW-620): < 10% | inhibition of growth at 10 µM (KM12): < 10% | inhibition of growth at 10 µM (SNB-19): < 10% | inhibition of growth at 10 µM (EKVX): 31% | inhibition of growth at 10 µM (UACC-62): 19% | inhibition of growth at 10 µM (BT-549): < 10% | inhibition of growth at 10 µM (TK-10): < 10% | inhibition of growth at 10 µM (PC-3): 30% | inhibition of growth at 10 µM (NCI-H322M): < 10% | inhibition of growth at 10 µM (SNB-75): < 10% | inhibition of growth at 10 µM (COLO 205): < 10% | inhibition of growth at 10 µM (A549): < 10% | inhibition of growth at 10 µM (MDA-MB-231): 20% | inhibition of growth at 10 µM (OVCAR-4): < 10% | inhibition of growth at 10 µM (Malme-3M): < 10% | inhibition of growth at 10 µM (SK-MEL-28): < 10% | inhibition of growth at 10 µM (SN12C): < 10% | inhibition of growth at 10 µM (SK-MEL-5): 24% | inhibition of growth at 10 µM (HCC 2998): < 10% | inhibition of growth at 10 µM (UO-31): 30% | inhibition of growth at 10 µM (MDA-MB-435): < 10% | inhibition of growth at 10 µM (ACHN): < 10% | inhibition of growth at 10 µM (MCF7): 28% | inhibition of growth at 10 µM (HOP-62): 24% | inhibition of growth at 10 µM (U-251): 11% | inhibition of growth at 10 µM (A498): 41% | inhibition of growth at 10 µM (HT-29): < 10% | inhibition of growth at 10 µM (MDA-MB-468): < 10% | inhibition of growth at 10 µM (RXF 393): < 10% | inhibition of growth at 10 µM (HCT-15): 25% | inhibition of growth at 10 µM [1]: < 10% | inhibition of growth at 10 µM (SF-268): < 10% | inhibition of growth at 10 µM (OVCAR-8): < 10%
